Our source for the Kd values is paper PMC5294914 (Cell host & microbe, 2016).

The test addresses FmlH (Escherichia coli, UniProt A0A0H2V7F6). Nature of the test: solution binding study.

Molecules are shown by their SMILES.

The Kd is a measure of binding affinity in units of concentration. In turn, `OC[C@H]1OC(O)[C@H](O)[C@@H](O)[C@H]1O` (stereo partly drawn) [D-Gal] came in with a Kd of 625 µM.
